These results are taken from patent US12103924B2, “Mitogen-activated protein kinase kinase (MEK) degradation compounds and methods of use” (Icahn School of Medicine at Mount Sinai, priority 2020, dated 2024).

The subject of test [1] is HT-29 cells. The experiment in a line: WST-8 cell viability assay, HT-29. The format is cell-based. The method, then: (§1) Cells were fixed and stained by crystal violet.
(§2) Cells (2000 cells per well) were seeded into 96-well microplates. After 20 h, cells were treated with 0.1% DMSO or indicated serial dilutions of compounds in duplicate or triplicate for 3 days. Cell viability was tested using MTT (M6494, Thermo Fisher Scientific) or WST-8 reagent (CK04, Dojindo). Briefly, 12 mM MTT was prepared in PBS or WST-8 reagent was warmed up to room temperature. 20 μL MTT or CCK-8 was then added to each well and the plates were kept in incubator at 37° C. for 3 h in the dark. For the WST-8 assay, signal was obtained after the incubation. For the MTT assay, cell medium was replaced with 200 μL of DMSO after the incubation, and then cell plates were kept at 37° C. for another 30 min. Absorbance signals for MTT and WST-8 were read at 540 nm and 450 nm respectively, with 690 nm as reference performed with Infinite F PLEX plate reader (TECAN, Morrisville, NC, USA). GI50 values were analyzed using GraphPad Prism 8 from the data of at least three independent experiments.

Test [2] concerns SK-MEL-28 cells. The test can be described thus: WST-8 cell viability assay, SK-MEL-28. The test is classed as cell-based. The method, then: as §1, §2
The test system of a further test is H3122 cells. The experiment in a line: WST-8 cell viability assay, H3122. The format is cell-based. The conditions noted are these: WST-8, 3 d. The procedure:
as §2

The next test relates to SUDHL1 cells. The test can be described thus: WST-8 cell viability assay, SUDHL1. The format is cell-based. The settings on record: WST-8, 3 d. The method, then:
as §2

The subject of test [3] is MEK1/2. The experiment in a line: Western blot of MEK1/2 protein levels in HT-29 cells. The format is cell-based. The settings on record: for MEK1 and MEK2 protein levels, time-dependent / MEK1 and MEK2 protein levels, concentration-dependent: HT-29 cells; for MEK1 and MEK2 protein levels, time-dependent: 0.1 μM or 0.3 μM, harvested at indicated time points; for MEK1 and MEK2 protein levels, concentration-dependent: serial dilution, western blot.
Protocol: Compound concentrations are 0.3 μM, 1 μM and 3 μM.
(§3) The indicated protein levels were determined by Western blots.
(§4) The sample was centrifuged at 12,000 g for 10 min at 4° C. to get supernatant as cell lysate. Protein concentrations were quantified using Pierce rapid gold BCA protein assay kit.

Test [4] deals with pMEK and pERK. The experiment in a line: Western blot of MEK and ERK phosphorylation in HT-29 cells. The format is cell-based. The settings on record: for phosphorylation of MEK and ERK / pERK signaling, time-dependent / phosphorylation of MEK and ERK proteins, concentration-dependent: HT-29 cells; for phosphorylation of MEK and ERK / pERK signaling, time-dependent: 0.1 μM or 0.3 μM, harvested at indicated time points; for phosphorylation of MEK and ERK proteins, concentration-dependent: serial dilution, western blot.

The subject of test [5] is MEK1/2. The experiment in a line: Western blot of MEK1/2 protein levels in SK-MEL-28 cells. The settings on record: for MEK1 and MEK2 protein levels, time-dependent / MEK1 and MEK2 protein levels, concentration-dependent: SK-MEL-28 cells; for MEK1 and MEK2 protein levels, time-dependent: 0.1 μM or 0.3 μM, harvested at indicated time points; for MEK1 and MEK2 protein levels, concentration-dependent: serial dilution, western blot.
Protocol: as §3, §4

Test [6] deals with pMEK and pERK. The experiment in a line: Western blot of MEK and ERK phosphorylation in SK-MEL-28 cells. The conditions noted are these: for phosphorylation of MEK and ERK / pERK signaling, time-dependent / phosphorylation of MEK and ERK proteins, concentration-dependent: SK-MEL-28 cells; for phosphorylation of MEK and ERK / pERK signaling, time-dependent: 0.1 μM or 0.3 μM, harvested at indicated time points; for phosphorylation of MEK and ERK proteins, concentration-dependent: serial dilution, western blot.

For test [7], the system named is HT-29 cells. The experiment in a line: MTT cell viability assay, HT-29. The test is classed as cell-based.
Protocol: MTT assay was conducted for HT-29 cells after 3 d treatment with indicated compounds with serial dilutions.
MTT assay was conducted for HT-29 (A) and SK-MEL-28 (B) cells after 3 d treatment with DMSO or indicated compounds with serial dilutions. Clonogenic assay was performed in HT-29 (C) and SK-MEL-28 (D) cells for 14 d treatment with DMSO or indicated compounds with 10, 30 and 100 nM, in duplicate, respectively. Cells were then stained by crystal violet.
HT-29 or SK-MEL-28 cells (300 cells per well) were seeded in 12-well plates. After 20 h, cells were treated with DMSO or indicated concentrations of compounds in duplicate for two weeks. Medium containing indicated compounds was changed every 3 days. Cells were then fixed and stained with the solution containing 6% (v/v) glutaraldehyde (G5882, Sigma-Aldrich) and 0.5% (w/v) crystal violet for 1 h. To remove the background color, the plates with stained cells were immersed in running water until clear colonies were observed. The plates were dried at RT. The staining images were obtained with Epson Perfection V600 Photo.
The test system of test [8] is SK-MEL-28 cells. The test can be described thus: MTT cell viability assay, SK-MEL-28. The conditions noted are these: MTT 3 d, clonogenic assay 14 d at 10, 30 and 100 nM. The format is cell-based. The method, then:
Clonogenic assay was performed in HT-29 (C) and SK-MEL-28 (D) cells for 14 d treatment with DMSO or indicated compounds with 10, 30 and 100 nM, in duplicate, respectively. Cells were then stained by crystal violet.
as §2
HT-29 or SK-MEL-28 cells (300 cells per well) were seeded in 12-well plates. After 20 h, cells were treated with DMSO or indicated concentrations of compounds in duplicate for two weeks. […]

In another test the target is T1, MEK1 (Homo sapiens, UniProt Q02750).
T1 construct: purchased Thermo Fisher Scientific PV3303
The test can be described thus: HotSpot kinase inhibition assay, MEK1. The test is classed as biochemical. The conditions noted are these: MEK1 100 nM, ERK K52R substrate, 33P-ATP, normalized with DMSO.

Another test addresses T2, MEK2 (Homo sapiens, UniProt P36507).
T2 construct: purchased Thermo Fisher Scientific PV3615
The test can be described thus: HotSpot kinase inhibition assay, MEK2. The settings on record: MEK2 150 nM, ERK K52R substrate, 33P-ATP, normalized with DMSO. The test is classed as biochemical.

In test [9] the test system is MEK1/2. The experiment in a line: Rescue experiments (pretreatment) in HT-29 cells, western blot. The format is cell-based. The settings on record: 2 h pretreatment with PD0325901 (1 μM), MG-132 (3 μM), MLN4924 (1 μM) or VH 032 (10 μM), then 10 h with 0.3 μM CPD-031.
Protocol: The cells were incubated for another 8 h.
as §4
For test [10], the system named is MEK1/2. The experiment in a line: Rescue experiments (pretreatment) in SK-MEL-28 cells, western blot. The test is classed as cell-based. The settings on record: 2 h pretreatment with PD0325901 (1 μM), MG-132 (3 μM), MLN4924 (1 μM) or VH 032 (10 μM), then 10 h with 0.3 μM CPD-031.
The test system of the next test is MEK1 and MEK2 proteins. The test can be described thus: Global proteome analysis of HT-29 cells. The test is classed as cell-based, human. The settings on record: 10 h, 0.1 μM, versus 0.1% DMSO. The method, then:
[…] […] P values were calculated from the data of two technical replicates. (A) DMSO compared to CPD-031 treated samples; (B) CPD-034 compared to CPD-031 treated samples; (C) DMSO compared to CPD-034 treated samples.
Proteins outside the significance lines were labeled with pink or purple color (FDR=0.05, S0=1). P values were calculated from the data of two technical replicates.
Protein Extraction and Digestion. Cells with indicated treatments were harvested and lysed in lysis buffer (6 M guanidine hydrochloride, 100 mM Tris-HCl pH 8.0). Sonication (5 s on, 5 s off, 2×30 s) was performed to shear genome DNA. Lysate were centrifugated for 30 min at 3,500 g at 4° C. and the supernatant were transferred to a clean tube, diluted 50% with Milli-Q H2O, then precipitated by addition of cold acetone (four times the original volume), and placed at −20° C. overnight. Precipitated proteins were brought down at 20,000 g at 4° C. for 10 min, and washed with cold acetone after discarding the supernatant. The pellet was air-dried at RT for 5 min and solubilized with 50 mM Tris-HCl (PH 8.0), 8 M urea. Protein concentration was determined (BCA assay) and protein was reduced with 5 mM DTT (dithiothreitol), alkylated with 15 mM IAA (iodoacetamide) in the dark, then diluted with buffer 25 mM Tris (pH 8.0) and 1 mM CaCl2 (three times the original volume). The final urea concentration is 2 M. Trypsin was added into protein solution with 1:100 ratio (trypsin:protein), and digested 12-16 h or overnight at RT.
Mass Spectrometry Analysis. Peptides were cleaned up by C18 stage tips and the concentration was determined (Peptide assay, 23275, Thermo Fisher Scientific). The clean peptides were dissolved in 0.1% formic acid and analyzed on a Q-Exactive HF-X coupled with an Easy nanoLC 1200 (Thermo Fisher Scientific, San Jose, CA). 0.5 μg of peptides were loaded onto an Acclain PepMap RSLC C18 Column (250 mm×75 μm ID, C18, 2 μm, Thermo Fisher Scientific). […] A linear gradient of 5 to 30% buffer B over 110 min was executed at a 300 nl/min flow rate followed a ramp to 100% B in 5 min, and 15-min wash with 100% B, where buffer A was aqueous 0.1% formic acid, and buffer B was 80% acetonitrile and 0.1% formic acid.
LC-MS experiments were performed in a data-dependent mode with full MS (externally calibrated to a mass accuracy of <5 ppm and a resolution of 60,000 at m/z 200) followed by high energy collision-activated dissociation-MS/MS of the top 20 most intense ions with a resolution of 15,000 at m/z 200. High energy collision-activated dissociation-MS/MS was used to dissociate peptides at a normalized collision energy of 27 eV in the presence of nitrogen bath gas atoms. Dynamic exclusion was 30.0 seconds. Each sample was subjected to two technical LC-MS replicates.
MS Data Analysis. Mass spectra processing and peptide identification were performed on the Andromeda search engine in MaxQuant software (Version 1.6.0.16) against the human UniProt database (UP000005640). All searches were conducted with a defined modification of cysteine carbamidomethylation, with methionine oxidation and protein amino-terminal acetylation as dynamic modifications. Peptides were confidently identified using a target-decoy approach with a peptide false discovery rate (FDR) of 1% and a protein FDR of 1%. A minimum peptide length of 7 amino acids was required, maximally two missed cleavages were allowed, initial mass deviation for precursor ion was up to 7 ppm, and the maximum allowed mass deviation for fragment ions was 0.5 Da. Data processing and statistical analysis were performed on Perseus (Version 1.6.0.7). Protein quantitation was performed on duplicate runs, and a two-sample t-test statistics was used to report statistically significant expression fold-changes.

The mark [11] stands for this setting: HT-29 cells, 0.1, 0.3, or 1 μM, 24 h.
Setting [12] is: SK-MEL-28 cells, 0.1, 0.3, or 1 μM, 24 h.

SMILES strings stand for the structures.

T2 sequence (P36507 whole entry): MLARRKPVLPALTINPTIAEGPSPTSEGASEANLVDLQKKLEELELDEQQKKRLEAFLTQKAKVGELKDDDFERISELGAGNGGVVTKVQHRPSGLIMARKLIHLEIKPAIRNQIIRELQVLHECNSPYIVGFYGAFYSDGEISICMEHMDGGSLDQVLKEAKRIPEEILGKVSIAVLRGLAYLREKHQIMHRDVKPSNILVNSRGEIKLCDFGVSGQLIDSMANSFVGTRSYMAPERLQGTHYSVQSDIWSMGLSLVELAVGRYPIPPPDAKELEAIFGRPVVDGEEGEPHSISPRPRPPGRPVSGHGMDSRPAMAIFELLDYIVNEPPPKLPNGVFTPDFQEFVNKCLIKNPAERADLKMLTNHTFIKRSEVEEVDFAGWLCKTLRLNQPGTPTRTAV
T1 sequence (Q02750 whole entry): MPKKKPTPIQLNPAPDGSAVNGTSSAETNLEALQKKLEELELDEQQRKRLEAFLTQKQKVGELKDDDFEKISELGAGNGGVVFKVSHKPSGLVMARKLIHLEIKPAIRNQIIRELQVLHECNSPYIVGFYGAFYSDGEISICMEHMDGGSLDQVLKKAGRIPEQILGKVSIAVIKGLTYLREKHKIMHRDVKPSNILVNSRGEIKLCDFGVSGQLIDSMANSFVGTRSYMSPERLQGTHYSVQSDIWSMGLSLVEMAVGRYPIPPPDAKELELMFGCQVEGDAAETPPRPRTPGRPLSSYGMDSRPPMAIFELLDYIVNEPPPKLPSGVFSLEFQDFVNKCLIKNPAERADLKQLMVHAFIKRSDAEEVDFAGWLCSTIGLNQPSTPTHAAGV

Consider `Cc1ncsc1-c1ccc([C@H](C)NC(=O)[C@@H]2C[C@@H](O)CN2C(=O)[C@@H](NC(=O)CCCCCCCCCCN(C)CCCONC(=O)c2ccc(F)c(F)c2Nc2ccc(I)cc2F)C(C)(C)C)cc1` [CPD-037, (2S,4R)-1-((S)-20-(tert-butyl)-1-(3,4-difluoro-2-((2-fluoro-4-iodophenyl)amino)phenyl)-7-methyl-1,18-dioxo-3-oxa-2,7,19-triazahenicosan-21-oyl)-4-hydroxy-N—((S)-1-(4-(4-methylthiazol-5-yl)phenyl)ethyl)pyrrolidine-2-carboxamide], for which the growth of cells entry is on record as “significantly suppressed” in the test on HT-29 cells [1] (WST-8 3 d serial dilutions, clonogenic assay 10 d) and “significantly suppressed” in the test with SK-MEL-28 cells [2] (WST-8 3 d serial dilutions). In addition, the “growth inhibition compared with AZ compound” value was “more potent” with HT-29 cells [1] (WST-8, 3 d); “more potent” in the test with SK-MEL-28 cells [2] (WST-8, 3 d); “more potent” with H3122 cells; “more potent” with SUDHL1 cells. The “MEK1 and MEK2 protein levels, time-dependent” value in the test with MEK1/2 [3] and in the test with MEK1/2 [5] was “degrade” throughout. The “MEK1 and MEK2 protein levels, concentration-dependent” value with MEK1/2 [3] (24 h) and in the test on MEK1/2 [5] (24 h) was “degrade” each time. Further, the “phosphorylation of MEK and ERK / pERK signaling, time-dependent” value in the test with pMEK and pERK [4] is given as “inhibit”; with pMEK and pERK [6] it was “inhibit”. Besides, the “phosphorylation of MEK and ERK proteins, concentration-dependent” value in the test with pMEK and pERK [4] (24 h) is “inhibit”; with pMEK and pERK [6] (24 h) it was “inhibit”.

For `Cc1ncsc1-c1ccc([C@H](C)NC(=O)[C@@H]2C[C@@H](O)CN2C(=O)[C@@H](NC(=O)CCCCCCCCCCNCCCONC(=O)c2ccc(F)c(F)c2Nc2ccc(I)cc2F)C(C)(C)C)cc1` [CPD-031, (2S,4R)-1-((S)-20-(tert-butyl)-1-(3,4-difluoro-2-((2-fluoro-4-iodophenyl)amino)phenyl)-1,18-dioxo-3-oxa-2,7,19-triazahenicosan-21-oyl)-4-hydroxy-N—((S)-1-(4-(4-methylthiazol-5-yl)phenyl)ethyl)pyrrolidine-2-carboxamide], the GI50 with HT-29 cells [7] (Homo sapiens, 72 h, MTT assay, 3 d treatment, serial dilutions) was 0.13 ± 0.04 µM. The “inhibition of the growth of cells compared with CPD-034” value in the test with HT-29 cells [7] (MTT 3 d, clonogenic assay 14 d at 10, 30 and 100 nM) is “more potent”; with SK-MEL-28 cells [8] it was “more potent”. Further, the MEK1 kinase activity result on MEK1 is “inhibited”. The MEK2 kinase activity entry on MEK2 is on record as “inhibited”. In addition, the “MEK1 and MEK2 protein levels, time-dependent” value in the test with MEK1/2 [3] and in the test on MEK1/2 [5] was “reduced” throughout. Further, the “MEK1 and MEK2 protein levels” value with MEK1/2 [3] (setting [11]) and in the test with MEK1/2 [5] (setting [12]) was “reduced” throughout. For the same compound, the “MEK1 and MEK2 protein levels, concentration-dependent” value in the test on MEK1/2 [3] (24 h) and in the test on MEK1/2 [5] (24 h) was “reduced” in each case. Moreover, the “phosphorylation of MEK and ERK / pERK signaling, time-dependent” value with pMEK and pERK [4] is “inhibited”; with pMEK and pERK [6] it was “inhibited”. Besides, the “inhibition of MEK and ERK phosphorylation compared with CPD-034” value with pMEK and pERK [4] (setting [11]) was “more potent”; in the test on pMEK and pERK [6] (setting [12]), “more potent”. Moreover, the “phosphorylation of MEK and ERK proteins, concentration-dependent” value was “inhibited” with pMEK and pERK [4] (24 h); “inhibited” with pMEK and pERK [6] (24 h). For the same compound, the “potency at degradation of MEK1 and MEK2 and inhibition of MEK phosphorylation after pretreatment” value with MEK1/2 [9] and in the test with MEK1/2 [10] was “significantly impaired” each time. In the test with MEK1 and MEK2 proteins, the “protein levels in the global proteomic study” value is listed as “selectively degraded”.
